From PubChem BioAssay AID463206 (Broad Institute, 2010) come the findings set out here.

Active and inactive are the calls of the source.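 How the source made its calls: active means caspase luminescence falls with dose and the half-maximal concentration AC50 from the fitted curve is at or below a set limit; inconclusive means flat fit at 30 to 70% signal loss, or invalid fit; inactive means AC50 above the limit, or signal rises instead.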

In the experiment the test system is INS-1E cytokine-induced caspase-3/7, Caspase-Glo luminescence, 48 h. The experiment in a line: inhibitors of cytokine-induced caspase-3/7 activity, dose response, orthogonal assay for beta-cell apoptosis protection project, INS-1E rat cells, luminescence (AID 463206).
For the molecule `C/C(=N\Nc1nc2ccccc2[nH]1)c1ccccn1`, the AC50 was > 26 µM (inactive).
On to `COc1cnc(-c2ccccn2)nc1NC(C)C`, for which the AC50 was > 12 µM (inactive).
The same measure for `Cc1ccc(-c2c(C#N)c(N)n3c(nc4ccccc43)c2C#N)cc1`: > 26 µM (inactive).
In the case of `CCc1cc[n+](C2=C([O-])c3ccccc3C(=O)/C2=N\S(=O)(=O)c2cccs2)cc1`, the AC50 was > 26 µM (inactive).
The same measure for `O=C(OCn1ncc(Cl)c(Cl)c1=O)c1ccccc1Cl`: > 26 µM (inactive).
With `NC(=S)N/N=C/c1c(O)ccc2ccccc12`, the AC50 was > 26 µM (inactive).
For the molecule `Nc1ccc(Br)cc1-c1nc2ccccc2[nH]c1=O`, the AC50 is > 26 µM (inactive).
`CCOC(=O)c1[nH]cnc1N=Nc1c(O)ccc2ccccc12`: the AC50 is > 26 µM (inactive).
Consider `C#CCOCCOCCOCCNc1nc(N2CCN(C(=O)CCCCCCCCCCNC(=O)[C@H](CCCCN)n3cc(C)nn3)CC2)nc(N2CCN(C(=O)CCCCCCCCCCNC(=O)[C@@H]([C@H](C)CC)n3cc(CCCCCN)nn3)CC2)n1`, for which the AC50 was > 26 µM (inactive).
As for `O=C1C(Cl)=C(NCCN2CCCCC2)C(=O)c2ccccc21`, the AC50 was > 26 µM (inactive).
In the case of `CCCOCc1ccc(O)c2ncccc12`, the AC50 was > 26 µM (inactive).
The same measure for `Cc1cc(C)n(-c2nc(NCCN(C)C)c3c4c(sc3n2)CCCC4)n1`: 13.1 µM; for `CCC(=O)NC(c1cccs1)c1cc(Cl)c2cccnc2c1O` (centres undefined): > 26 µM (inactive).
The same measure for `COc1ccc(N/N=C/c2c(C(=O)O)ccc3ccccc23)cc1`: > 26 µM (inactive).
As to `CCCCCCCCCCCCCCCC[n+]1cccc(C(=O)N(CC)CC)c1`, the AC50 was > 26 µM (inactive).
Turning to `COC(=O)c1ccc(COc2ccccc2/C=C(\C#N)C(=O)Nc2c(C)cccc2C)cc1`, the AC50 was > 26 µM (inactive).
As for `Oc1ccccc1/C=N/Nc1nc2ccccc2o1`, the AC50 was > 26 µM (inactive).
The figure for `Cc1nc(C)c(C(=O)N/N=C/c2cc(Br)ccc2O)s1` is > 26 µM (inactive); for `CC(C)(C)c1ccc(C(O)CCCN2CCC(C(O)(c3ccccc3)c3ccccc3)CC2)cc1` (centres undefined) it is > 26 µM (inactive).
Regarding `CC(C)C(=O)NC(c1ccccc1)c1cc([N+](=O)[O-])c2cccnc2c1O` (centres undefined), the AC50 is > 26 µM (inactive).
The figure for `Cc1cccn2c(Nc3ccccc3)c(-c3ccccn3)nc12` is > 26 µM (inactive); for `CCc1c(C)sc2nc(C(C)C)nc(SCC(=O)N3CCc4ccccc4C3)c12` it is > 26 µM (inactive); for `c1ccc(-c2nnc(-c3ccccn3)nc2NC2CCCCC2)cc1` it is > 26 µM (inactive).
As for `O=C(Nc1nc(-c2ccccn2)cs1)c1cc(Cl)ccc1[N+](=O)[O-]`, the AC50 is > 26 µM (inactive).
The figure for `Oc1[nH]c2ccccc2c1N=NC(=S)N1CCOCC1` is > 26 µM (inactive); for `Cn1cc(C(=O)N/N=C/c2c(O)ccc3ccccc23)ccc1=O` it is > 26 µM (inactive).
The same measure for `CCN(CC)S(=O)(=O)c1cc(NC(=O)CNc2cccc(S(=O)(=O)N3CCCC3)c2)ccc1C`: > 26 µM (inactive); for `Fc1ccc(-c2cc(-c3nnc4n3CCCCC4)c3ccccc3n2)cc1`: > 26 µM (inactive).
The figure for `C=CCn1nc([N+](=O)[O-])nc1Sc1cccc2cccnc12` is > 26 µM (inactive); for `O=C1C(Nc2ccccc2)=C/C(=N/S(=O)(=O)c2cccs2)c2ccccc21` it is > 26 µM (inactive).
Turning to `COc1cc(SC#N)ccc1N=Cc1c(C)[nH]n(-c2ccc(C)c(C)c2)c1=O`, the AC50 was > 26 µM (inactive).
Turning to `Cc1oc2c(c1C(=O)c1ccccc1)C(=O)C(=O)c1ccccc1-2`, the AC50 is > 26 µM (inactive).
For `Oc1ccc(COCc2ccccc2)c2cccnc12`, the AC50 was > 26 µM (inactive).
The figure for `COc1cc2c(cc1OC)C(NC(=O)C(F)(F)F)CNC2=O` (centres undefined) is > 26 µM (inactive).
The figure for `CCCCCCn1c2c(c(=N)c3c1CCC3)CCC2` is > 26 µM (inactive); for `Cc1cc(C)cc(Oc2cc(NC(=O)c3cn(C)nc3C)cc([N+](=O)[O-])c2)c1` it is > 26 µM (inactive).
Regarding `CC(=O)Nc1ccc(S(=O)(=O)NC2=C(N3CCN(C)CC3)C(=O)c3ccccc3C2=O)cc1`, the AC50 was > 26 µM (inactive).
The same measure for `CC[C@H](C)[C@@H](C(=O)NCCCCCCCCCCC(=O)N1CCN(C(=O)OC(C)(C)C)CC1)n1cc(CCCCCNC(=O)OC(C)(C)C)nn1`: > 26 µM (inactive).
The figure for `CN(C)CCCn1cnc2c(c1=N)C(c1ccccc1)c1ccc3ccccc3c1O2` (centres undefined) is 9.99 µM; for `Cc1cc(NC2CCCCC2)nc(NCc2ccccc2)n1` it is > 26 µM (inactive); for `N#C/C(=N\Nc1cccc([N+](=O)[O-])c1)C(=O)c1ccc(Br)cc1` it is > 26 µM (inactive).
Turning to `c1ccc(-c2nnc(CSc3ccc4c(c3)OCCO4)o2)cc1`, the AC50 is > 26 µM (inactive).
Take `Cc1ccc(-c2nc(N/N=C/c3cccnc3)c3ccccc3n2)cc1`: the AC50 is > 26 µM (inactive).
`CCOC(=O)CSc1nc2c(c(=O)[nH]1)C(C)(CC)Cc1ccccc1-2` (centres undefined): the AC50 was > 26 µM (inactive).
Take `CC(C)(C)OC(=O)NCc1ccc(NC(=O)c2nc[nH]c2C(=O)NCCCCNC(=O)c2[nH]cnc2C(=O)Nc2ccc(CNC(=O)OC(C)(C)C)cc2)cc1`: the AC50 was > 26 µM (inactive).
The figure for `Cc1ccc(C(=O)C[n+]2cc(-c3ccccc3)n3c2CCCCC3)cc1` is > 26 µM (inactive); for `COc1ccc(/C=C/c2nc3ccccc3n2C)cc1` it is > 26 µM (inactive); for `COc1ccc(S(=O)(=O)Nc2cc(SCC(=O)O)c(O)c3ccccc23)cc1` it is > 26 µM (inactive).
Take `CNC[C@@H](Cc1ccccc1)NC[C@@H](CC1CCCCC1)NCCCc1ccccc1`: the AC50 was > 26 µM (inactive).
Turning to `Cc1c(/C=N/Nc2nc3ccccc3[nH]2)c2ccccc2n1C`, the AC50 is > 26 µM (inactive).
The same measure for `Cc1ccc(NS(=O)(=O)c2ccc(NC(=O)CN(c3cc([N+](=O)[O-])ccc3C)S(C)(=O)=O)cc2)c(C)c1`: > 26 µM (inactive); for `CCCOc1cc(NCc2ccccc2)c2ncn(C(C)C)c2c1`: > 26 µM (inactive); for `CC[C@@H]1C/C=C\Cc2ccccc2[C@H](C(=O)C[C@@H](O)CC(C)=O)OC1=O`: > 26 µM (inactive).
As for `Cc1oc(/N=C/c2ccccc2)c(C#N)c1C`, the AC50 is > 26 µM (inactive).
In the case of `Clc1ccc(CSc2ccc(-c3ccccn3)nn2)cc1`, the AC50 was > 26 µM (inactive).
Take `C=C(C(=O)c1ccccc1)C(C)C(=C)C(=O)c1ccccc1`: the AC50 is > 26 µM (inactive).
As for `COc1ccc(C(NC(C)=O)c2cc(Cl)c3cccnc3c2O)cc1OC` (centres undefined), the AC50 is > 26 µM (inactive).
The same measure for `COc1ccc(C(=O)/C(C#N)=N/Nc2ccc([N+](=O)[O-])cc2)cc1`: > 26 µM (inactive).
The same measure for `Cc1cc(N/N=C\c2ccc(Br)cc2)nc(-n2nc(C)cc2C)n1`: > 26 µM (inactive); for `Cc1ccccc1NC(=S)Nc1cccc2cnccc12`: > 26 µM (inactive).
The same measure for `CC(=O)NC(C)c1cc(Cl)c2cccnc2c1O` (centres undefined): > 26 µM (inactive); for `O=C(OCCOc1cccc(Cl)c1)c1cc(S(=O)(=O)N2CCCCC2)ccc1N1CCOCC1`: > 26 µM (inactive); for `CNC1=C(N(C(C)=O)c2ccc(Br)cc2)C(=O)c2ccccc2C1=O`: > 26 µM (inactive).
Take `OC(COC(c1ccc(F)cc1)c1ccc(F)cc1)CN1CCc2ccccc2C1` (centres undefined): the AC50 is > 26 µM (inactive).
The figure for `Cc1nc(NCCc2ccc(S(N)(=O)=O)cc2)c2c(C)c(C)sc2n1` is > 26 µM (inactive).
The same measure for `Cc1cccc2c(C(=O)N3CCN(c4ccccn4)CC3)cc(-c3cccc(Br)c3)nc12`: > 26 µM (inactive); for `Cc1ccc(OCCN2CCN(c3ncnc4sc(C)c(C)c34)CC2)cc1`: > 26 µM (inactive); for `CCS(=O)(=O)c1ncc(Cl)c(C(=O)Nc2ccc(S(=O)(=O)N(C)c3ccccc3)cc2)n1`: > 26 µM (inactive).
The same measure for `FC(F)(F)c1nnc2c(Sc3ccccc3)nc3ccc(Cl)cc3n12`: > 26 µM (inactive); for `NC1=NC[C@H](Cc2ccccc2)N1CCCCC1CCCCC1`: > 26 µM (inactive); for `O=C1C=C(Nc2ccc(F)cc2)c2ccccc2C1=O`: > 26 µM (inactive).
As to `Cc1ccc(S(=O)(=O)Nc2ccccc2N(C)S(=O)(=O)c2ccc(C)cc2)cc1`, the AC50 is > 26 µM (inactive).
The same measure for `C=CCNC1=C(Cl)C(=O)c2ccccc2C1=O`: > 26 µM (inactive); for `COc1ccc(-c2ccc3c(c2)S(=O)(=O)c2cccc(C(=O)NCCOc4ccccc4Cl)c2C3=O)cc1OC`: > 26 µM (inactive); for `Cc1ccccc1/C=C/C(=O)c1ccc([N+](=O)[O-])o1`: > 26 µM (inactive).
The figure for `CC(=O)c1c(C)oc2ccc(N(C(C)=O)S(=O)(=O)c3cccc4cccnc34)cc12` is > 26 µM (inactive).
`CC[C@H]1CN2CCc3cc(OC)c(OC)cc3[C@@H]2C[C@@H]1C[C@H]1NCCc2cc(OC)c(OC)cc21`: the AC50 is > 26 µM (inactive).
As to `CCOc1ccc(-n2c(O)c(/C=N/Nc3nc(C)cc(C)n3)c3ccccc3c2=O)cc1`, the AC50 was > 26 µM (inactive).
Regarding `CCCCC(=O)NC(c1ccccc1OC)c1ccc2cccnc2c1O` (centres undefined), the AC50 is > 26 µM (inactive).
The figure for `Cc1ccc(NC(=O)c2cc(S(=O)(=O)NCCC3=CCCCC3)ccc2F)cc1F` is > 26 µM (inactive); for `COc1ccc(C[C@H]2CN3C(=NC[C@@H]3Cc3ccccc3)N2CCNC(=O)CCC2CCCCC2)cc1` it is > 26 µM (inactive); for `N#CCSc1nc2ccccc2c2nc3ccccc3n12` it is > 26 µM (inactive).
As for `COc1ccc(/C=C/c2cc(-c3ccc(C)cc3)o[n+]2C)cc1`, the AC50 is > 26 µM (inactive).
In the case of `Cc1cccc(NC(=O)/C=C/c2ccc([N+](=O)[O-])s2)c1`, the AC50 was 2.71 µM.

The AC50 is the concentration at which the activity in the assay is half-maximal.
